Laboratory results as given in US10842797B2, “Nutraceutical co-crystal compositions” (UNIVERSITY OF SOUTH FLORIDA, priority 2007, dated 2020).

Protocol: Solubility profiles for co-crystals were determined by UV-vis spectroscopy (Perkin Elmer-Lambda 25 UV-vis spectrometer, 400 nm).
The solubility of KP10 in 1:1 ethanol/water (V/V %) was determined by UV-vis spectroscopy, with a wavelength of 360 nm.
The solubility of KP15 in 1:1 ethanol/water (V/V %) was determined by UV-vis spectroscopy, with a wavelength of 300 nm.

increase in the solubility of hesperetin in the co-crystal when compared to pure hesperetin | increase in the solubility of quercetin in the co-crystal when compared to quercetin dehydrate | Substance
approximately 12 fold | – | Co-Crystal of Hesperetin and Iso-Nicotinamide [KP15]
– | ~6 fold | Co-Crystal of Quercetin and Iso-Nicotinamide [KP10]
